Tested on: 171881-019-R-J1-PDC complex spheroid viability
Experiment: Anticancer human tumor 171881-019-R-J1-PDC patient-derived invasive breast carcinoma cell line growth inhibition
Conditions: for IC50: curve of first compound; for viability, T/C: stronger effect = lower value
Text: Multicellular complex tumor spheroid response to LSD1 Inhibitor Iadademstat in combination with a variety of drugs and investigational agents in selected tumor cell lines
The current study was undertaken to assess response to LSD1 inhibitors in combination with standard-of-care drugs and investigational agents in solid tumor complex spheroid models as well as in the K-562 leukemia. Complex spheroids include a stromal component modeled by human endothelial cells (HUVEC) and fibroblasts modeled by human mesenchymal stem cells (MSCs). The concentration ranges selected for each drug and investigational agent were based upon clinically achievable concentrations if the clinical Cmax of the agent was known.
Compounds. The drugs and investigational agents used in this study are listed on Table 1. All of the agents used, including staurosporine (NSC755774) and gemcitabine (NSC613327), were obtained from the Developmental Therapeutics Program, NCI. FDA-approved anticancer drugs are available from the NCI at http://dtp.nci.nih.gov/branches/dscb/oncology_drugset_explanation.html. Drugs and investigational agents were >95% pure by proton nuclear magnetic resonance (NMR) and liquid chromatography/mass spectrometry (LC/MS). Stock solutions were prepared at 400x in DMSO, stored at -70 degrees C, and diluted in fresh medium prior to their use. The final concentration of DMSO in cell culture wells never exceeded 0.25% (v/v). The FDA-approved anticancer drug set is available from the Developmental Therapeutics Program at https://dtp.cancer.gov/organization/dscb/obtaining/available_plates.htm. All drugs and investigational agents were tested over a range starting from a high concentration at or near the clinical Cmax and decreasing in half-log increments. If the clinical Cmax for an agent had not been determined, the highest concentration tested was 10 microM.
Cell Lines. The patient-derived cancer cell (PDC) lines: 292921-168-R-J2-PDC, K24384-001-R-PDC, and 521955-158-R2-J5-PDC pancreatic carcinomas, 556581-035-R-J1 ovarian carcinoma, 324938-238-R-J1-PDC, 855422-203-R-J1-PDC and 883617-216-R-J1-PDC urothelial bladder carcinomas, 743489-274-T-PDC renal cell carcinoma, 138582-R-J1 Merkel cell tumor, K60290-347-R-J1 and K57222-313-R-J1-PDC glioblastomas, 653999-131-R-J2-PDC, LG0703-F948-PDC, and 349418-098-R-PDC non-small cell lung carcinomas, 885512-296-R-J2-PDC, 171881-019-R-J1-PDC breast carcinomas and 186277-243-T-J2-PDC and 233499-124-R-J2-PDC colon carcinomas were obtained from the NCI Patient-Derived Models Repository (PDMR, https://pdmr.cancer.gov). The established cell lines NCI/ADR-RES (RRID:CVCL_14520 and OVCAR-5 (RRID:CVCL_1628) ovarian carcinomas, 786-O (RRID:CVCL_1051) and A498 (RRID:CVCL_A498) renal cell carcinoma, NCI-H211 (ATCC, cat. CRL-5824; RRID:CVCL_1529), NCI-H196 (ATCC, cat. CRL-5823, RRID:CVCL_1509), SW 1271 (ATCC, cat. CRL-2177, RRID:CVCL_1716) and NCI-H1876 (ATCC, cat. CRL-5902, RRID:CVCL_1503) small cell lung carcinomas, MDA-MB-231 (RRID:CVCL_0062) and MDA-MB-468 (RRID:CVCL_0419)breast carcinomas (10-12). Pooled donor human umbilical vein endothelial cells (HUVEC, Lonza, cat. CC-2519) and human mesenchymal stem cells (hMSC, Lonza, cat. PT-2501) were purchased from Lonza (Walkersville, MD).
Cell Culture. All cells were maintained in an incubator at 37 degrees C and 5% CO2 with 95% humidity. The PDC lines were cultured according to standard operating procedures established by the NCI PDMR (https://pdmr.cancer.gov). Briefly all PDCs were thawed and cultured in Matrigel-coated flasks prepared with a working solution of 1X Ham's F-12 nutrient mix, without supplementation (Invitrogen, Waltham, MA, cat. 11765054), 100 U/mL penicillin-streptomycin (Invitrogen, cat. 15140122), and 2.5% Matrigel (Corning Inc., Corning, NY, cat. 354248) for the first three passages. […]

[1] = second compound 0.1 µM, first compound 0.000316 µM
[2] = second compound 0.1 µM, first compound 0.001 µM
[3] = second compound 0.1 µM, first compound 0.00316 µM
[4] = second compound 0.1 µM, first compound 0.01 µM
[5] = second compound 0.1 µM, first compound 0.0316 µM
[6] = second compound 0.1 µM, first compound 0.1 µM
[7] = second compound 0.316 µM, first compound 0.000316 µM
[8] = second compound 0.316 µM, first compound 0.001 µM
[9] = second compound 0.316 µM, first compound 0.00316 µM
[10] = second compound 0.316 µM, first compound 0.01 µM
[11] = second compound 0.316 µM, first compound 0.0316 µM
[12] = second compound 0.316 µM, first compound 0.1 µM
[13] = second compound 1 µM, first compound 0.000316 µM
[14] = second compound 1 µM, first compound 0.001 µM
[15] = second compound 1 µM, first compound 0.00316 µM
[16] = second compound 1 µM, first compound 0.01 µM
[17] = second compound 1 µM, first compound 0.0316 µM
[18] = second compound 1 µM, first compound 0.1 µM
[19] = second compound 3.16 µM, first compound 0.000316 µM
[20] = second compound 3.16 µM, first compound 0.001 µM
[21] = second compound 3.16 µM, first compound 0.00316 µM
[22] = second compound 3.16 µM, first compound 0.01 µM
[23] = second compound 3.16 µM, first compound 0.0316 µM
[24] = second compound 3.16 µM, first compound 0.1 µM
[25] = second compound 10 µM, first compound 0.000316 µM
[26] = second compound 10 µM, first compound 0.001 µM
[27] = second compound 10 µM, first compound 0.00316 µM
[28] = second compound 10 µM, first compound 0.01 µM
[29] = second compound 10 µM, first compound 0.0316 µM
[30] = second compound 10 µM, first compound 0.1 µM
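Further: spheroids exposed to agents for 7 days after 3 days growth.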

SMILES: CC(C)CC(NC(=O)C(Cc1ccccc1)NC(=O)c1cnccn1)B(O)O (stereo not given) + NC1CC1c1ccc(-c2cccc(O)c2)cc1
- IC50 (second compound 0.1 µM): < 0.316 nM
- IC50 (second compound 0.316 µM): < 0.316 nM
- IC50 (second compound 1 µM): < 0.316 nM
- IC50 (second compound 3.16 µM): < 0.316 nM
- IC50 (second compound 10 µM): < 0.316 nM
- viability, T/C [1]: 22.8%
- viability, T/C [2]: 21.4%
- viability, T/C [3]: 16.4%
- viability, T/C [4]: 10.8%
- viability, T/C [5]: 9.75%
- viability, T/C [6]: 13.1%
- viability, T/C [7]: 24.2%
- viability, T/C [8]: 8.57%
- viability, T/C [9]: 10.7%
- viability, T/C [10]: 11%
- viability, T/C [11]: 13.4%
- viability, T/C [12]: 9.51%
- viability, T/C [13]: 23.8%
- viability, T/C [14]: 18.2%
- viability, T/C [15]: 6.24%
- viability, T/C [16]: 7.73%
- viability, T/C [17]: 7.79%
- viability, T/C [18]: 7.59%
- viability, T/C [19]: 3.29%
- viability, T/C [20]: 4.7%
- viability, T/C [21]: 3.45%
- viability, T/C [22]: 8.88%
- viability, T/C [23]: 6.7%
- viability, T/C [24]: 5.34%
- viability, T/C [25]: 5.61%
- viability, T/C [26]: 8.2%
- viability, T/C [27]: 0.52%
- viability, T/C [28]: 3.61%
- viability, T/C [29]: 8.57%
- viability, T/C [30]: 1.8%

SMILES: CC(C)CC(NC(=O)CNC(=O)c1cc(Cl)ccc1Cl)B1OC(=O)CC(CC(=O)O)(C(=O)O)O1 (stereo not given) + NC1CC1c1ccc(-c2cccc(O)c2)cc1
- IC50 (second compound 0.1 µM): 0.885 nM
- IC50 (second compound 0.316 µM): 1.06 nM
- IC50 (second compound 1 µM): 0.719 nM
- IC50 (second compound 3.16 µM): < 0.316 nM
- IC50 (second compound 10 µM): < 0.316 nM
- viability, T/C [1]: 95%
- viability, T/C [2]: 35.5%
- viability, T/C [3]: 38.4%
- viability, T/C [4]: 23%
- viability, T/C [5]: 5.32%
- viability, T/C [6]: 15.9%
- viability, T/C [7]: 91.9%
- viability, T/C [8]: 49.9%
- viability, T/C [9]: 28.8%
- viability, T/C [10]: 24.4%
- viability, T/C [11]: 13.9%
- viability, T/C [12]: 11.5%
- viability, T/C [13]: 76.5%
- viability, T/C [14]: 39.3%
- viability, T/C [15]: 16.2%
- viability, T/C [16]: 8.02%
- viability, T/C [17]: 11.6%
- viability, T/C [18]: 5.3%
- viability, T/C [19]: 43.9%
- viability, T/C [20]: 42.6%
- viability, T/C [21]: 6.48%
- viability, T/C [22]: 6.09%
- viability, T/C [23]: 12.3%
- viability, T/C [24]: 12.9%
- viability, T/C [25]: 19.6%
- viability, T/C [26]: 24.7%
- viability, T/C [27]: 1.13%
- viability, T/C [28]: 4.15%
- viability, T/C [29]: 4.16%
- viability, T/C [30]: 4.12%

Source: PubChem BioAssay AID1918932 (Molecular Pharmacology Branch, DTP, NCI, 2023)
